Measured values published in patent publication US20200270588A1, “GLUCOSYL TRANSFERASE POLYPEPTIDES AND METHODS OF USE” (Syngenta Participations AG, priority 2017, published 2020).
Where “and” joins values, the source holds several entries; their conditions need not be identical. Equal values may be shown once.

What was measured:
Test in all cases: Glass house spray test on tobacco, percent damage
Format in all cases: in vivo
[1] = system: transgenic tobacco plants expressing zmBX9 (SEQ ID No 1); details: for percent damage: 14 DAT, tobacco expressing SEQ ID NO 1, lines 6266 and 6291, clonal plants A-E
Protocol: In the present example, Zea mays BX8 or BX9 or orthologues of BX8/9, for example SEQ ID Nos. 1-59 and various herbicide-active mutations and combinations of mutations thereof (e.g. as listed in Tables 1-9) are expressed in transgenic tobacco. DNA sequences that encode these polypeptides (optimized for tobacco or, optionally, codon optimized according to a target crop such as soybean) are prepared synthetically and obtained commercially from Genewiz (South Plainfield, USA). Each sequence is designed to include a 5′ fusion with TMV omega 5′ leader (SEQ ID NO: 109). The DNA sequences are flanked at the 5′ end with XhoI and at the 3′ end with KpnI to facilitate direct cloning into a suitable binary vector for Agrobacterium-based plant transformation.
In a particular example, the expression cassette, comprising the TMV omega 5′ leader and a BX encoding gene of interest is excised using XhoI/KpnI and cloned into similarly digested pBIN 19 (Bevan, Nucl. Acids Res. (1984) behind a double enhanced 35S promoter (SEQ ID NO:110) and ahead of a NOS 3′ transcription terminator (SEQ ID NO:111) and then transformed into E. coli DH5 alpha competent cells (see FIG. 5). DNA recovered from the E. coli is used to transform Agrobacterium tumefaciens LBA4404, and the transformed bacteria are selected on media contain rifampicin and kanamycin. Tobacco tissue is subjected to Agrobacterium-mediated transformation using methods well described in the art or as described herein. For example, a master plate of Agrobacterium tumefaciens containing the BX glucosyltransferase expressing binary vector is used to inoculate 10 ml LB (L broth) containing 100 mg/l Rifampicin plus 50 mg/l Kanamycin using a single bacterial colony. This is incubated overnight at 28° C. shaking at 200 rpm. This entire overnight culture is used to inoculate a 50 ml volume of LB containing the same antibiotics. Again this is cultured overnight at 28° C. shaking at 200 rpm. The Agrobacterium cells are pelleted by centrifuging at 3000 rpm for 15 minutes and then resuspended in MS (Murashige and Skoog) medium containing 30 g/l sucrose, pH 5.9 to an OD (600 nM)=0.6. This suspension is dispensed in 25 ml aliquots into petri dishes.
Once rooted, plantlets are transferred from agar and potted into 50% peat, 50% John Innes Soil No. 3 with slow-release fertilizer in 3 inch round pots and left regularly watered to establish for 8-12d in the glass house. Glass house conditions are about 24-27° C. day; 18-21° C. night and approximately a 14h photoperiod. […]
Three transgenic populations of about forty tobacco plants and comprising, a glucosyl transferase gene encoding either zmBX8 (SEQ ID NO 2) or zmBX9 (SEQ ID NO 1) were thus produced. […] Plants were assessed for damage and scored at 7 and 14 days after treatment (DAT). […]

[2] = system: transgenic tobacco plants expressing SEQ ID NO: 16; details: for tolerance compared with w/t and SEQ ID NO: 1 plants: 200 and 500 g/ha, 14 DAT, several events
Description: (§1) Three transgenic populations of about forty tobacco plants and comprising, a glucosyl transferase gene encoding either zmBX8 (SEQ ID NO 2) or zmBX9 (SEQ ID NO 1) were thus produced. A sub-set of about 30 plants were selected on the basis of similar size from each population for spray testing. The plants were then sprayed with 30 g/ha of Compound VI. VI was mixed in water with 0.2-0.25% X-77 surfactant and sprayed from a boom on a suitable track sprayer moving at 2 mph with the nozzle about 2 inches from the plant tops. Spray volume was 200 l/ha. Plants were assessed for damage and scored at 7 and 14 days after treatment (DAT).
In a further example, Zea mays BX8 or BX9 or orthologues of BX8/9, are altered to carry amino acid variants at various positions which increase tolerance to the alcohol and aminal PSII herbicides as described in the example above. DNA sequences that encode these polypeptides (optimized for tobacco or, optionally, codon optimized according to a target crop such as soybean) were prepared for tobacco transformation as described in example 10. […] Transgenic tobacco populations expressing SEQ ID NOs 16 and 17 were generated alongside a population expressing the parental zmBX9 sequence (SEQ ID 1). […] Plants were assessed for damage and scored at 14 days after treatment (DAT). The results are depicted in Table 19 and also in FIG. 6.

[3] = system: transgenic tobacco plants expressing SEQ ID NO: 17; details: for tolerance compared with w/t and SEQ ID NO: 1 plants: 200 and 500 g/ha, 14 DAT, several events
Description: as §1
In a further example, Zea mays BX8 or BX9 or orthologues of BX8/9, are altered to carry amino acid variants at various positions which increase tolerance to the alcohol and aminal PSII herbicides as described in the example above. DNA sequences that encode these polypeptides (optimized for tobacco or, optionally, codon optimized according to a target crop such as soybean) were prepared for tobacco transformation as described in example 10. […] Transgenic tobacco populations expressing SEQ ID NOs 16 and 17 were generated alongside a population expressing the parental zmBX9 sequence (SEQ ID 1). These populations were sprayed with herbicide V and VI at rates of 200 and 500 g/ha. Plants were assessed for damage and scored at 14 days after treatment (DAT). The results are depicted in Table 19 and also in FIG. 6.

[4] = 1 kg/ha, events 7937, 7940, 7952, 8039, 8071, 8106 expressing SEQ ID NOs 16 and 17, data not shown

SMILES | percent damage ([1]; 500 gai/ha V) | tolerance compared with w/t and SEQ ID NO: 1 plants [2] | tolerance compared with w/t and SEQ ID NO: 1 plants [3] | tolerance ([1]; 30 g/ha, several transgenic lines) | percent damage ([1]; 500 gai/ha VI) | tolerance ([1]; high rates, best two events) | tolerance [2, 4] | tolerance [3, 4]
CN1CC(O)N(c2cc(C(F)(F)F)ccn2)C1=O (stereo not shown) [Compound V] | 100% and 80% | much superior tolerance | much superior tolerance |  |  |  |  | 
CON1C(=O)N(c2cc(C(F)(F)F)ccn2)C(O)[C@@H]1C (stereo partly shown) [Compound VI] |  | much superior tolerance | much superior tolerance | demonstrate tolerance | 95% and 90% and 100% and 60% and 70% and 75% and 80% | only partial tolerance | substantially fully tolerant | substantially fully tolerant
